Results reported in article PMC5460925, “Degradation Paradigm of the Gut Hormone, Pancreatic Polypeptide, by Hepatic and Renal Peptidases” (Endocrinology, 2017).
One block for each molecule: values may come before it. Where no end group is shown, it is not given here.

Tests used:
in vivo = assay: in vivo; design: species or system mouse; conditions: sc
Method: The mice were divided into four treatment groups according to body weight. A protocol similar to that used for the phosphoramidon feeding study was used, with an IP injection, followed by a SC injection 15 minutes later (maximum volume, 50 µL for each injection) of phosphoramidon (0, 7, 20, and 60 mg/kg IP), followed by PP (150 nmol/kg SC in saline; n = 4 to 6; […]). […] Additional mice (n = 2) underwent overnight fasting and were culled at 0 minutes after injection of the control substances (saline SC and vehicle IP) for measurement of the baseline levels of circulating PP. The blood was immediately removed via cardiac puncture and centrifuged at 6000 rpm (Sigma 3K18; 12348 rotor; Sigma-Aldrich) for 10 minutes. The plasma was stored at −20°C until analysis. The plasma samples were assayed using an established in-house PP RIA ([8]). The anti-PP antibody was elevated in rabbit against human PP and recognized PP (and other truncated forms) but not in other PP-fold peptides or gastrointestinal peptides. ^125I-PP was prepared using the iodogen method and purified using HPLC. The assay was performed in duplicate in a total volume of 700 µL of 0.06 M phosphate buffer (pH 7.35) containing 0.3% bovine serum albumin. The samples were incubated for 3 days at 4°C before separation of free and antibody-bound ^125I-PP using dextran-coated charcoal. The sensitivity was ≤5 fmol/tube. The intra-assay coefficient of variation was 6%.

[1] = tested on: food intake in C57/BL6 mice; assay: Acute feeding studies (food intake) in overnight-fasted mice; assay type: in vivo, mouse; conditions: for inhibition of food intake over 24 hours vs saline: 0 to 24 hours
Method: All animal procedures were approved by the British Home Office, under the United Kingdom Animal (Scientific Procedures) Act 1986 (project license, 70/6402). Adult male C57/BL6 mice (Harlan, Wyton, UK) weighing 20 to 25 g were maintained in individual cages under controlled temperature (21°C to 23°C) and light (12-hour light/dark cycle, with lights on at 7:00 AM). The mice had ad libitum access to water and normal chow RM1 (Special Diet Services, Devon, UK), unless stated otherwise. For acclimatization, the mice were regularly handled and given 2 sham subcutaneous (SC) and/or intraperitoneal (IP) injections of saline. Before each feeding study, the mice were fasted overnight, and the injections were performed during the early light phase (8:00 to 10:00 AM). The mice were stratified by body weight. To investigate the anorectic effects of DPPIV-resistant analogs, the mice were stratified into treatment groups and administered a SC injection (maximum volume, 100 µL) of vehicle, PP, PP3-36, PP2-36, or PP-Ala0 (n = […]). Food intake was measured at 1, 2, 4, and 8 hours after injection to compare the peptides with short half-lives (PP and its endogenous degradation product, PP3-36) and, in a separate experiment, at 24 hours after injection for peptides with modifications (PP-Ala0 and PP2-36, using PP as the comparator). A PP analog with global modifications for enzyme resistance (PP-x) was also investigated and administered as a SC injection (maximum volume, 100 µL) at a high and low dose (n = 9). Food intake was measured at 1, 2, 4, and 8 hours after injection. […] This dose of phosphoramidon was sufficient to inhibit NEP activity ([30]). Food intake was measured at 1, 2, 4, 8, 24, and 48 hours after injection.

mouse Y4 receptor = target: T1, mouse Y4 receptor (Mus musculus, UniProt Q61041); assay: Y4 receptor binding assay (125I-PP competition)
T1 construct: expressed in transfected cells; host or cells: HEK293
T1 sequence (Q61041 whole entry): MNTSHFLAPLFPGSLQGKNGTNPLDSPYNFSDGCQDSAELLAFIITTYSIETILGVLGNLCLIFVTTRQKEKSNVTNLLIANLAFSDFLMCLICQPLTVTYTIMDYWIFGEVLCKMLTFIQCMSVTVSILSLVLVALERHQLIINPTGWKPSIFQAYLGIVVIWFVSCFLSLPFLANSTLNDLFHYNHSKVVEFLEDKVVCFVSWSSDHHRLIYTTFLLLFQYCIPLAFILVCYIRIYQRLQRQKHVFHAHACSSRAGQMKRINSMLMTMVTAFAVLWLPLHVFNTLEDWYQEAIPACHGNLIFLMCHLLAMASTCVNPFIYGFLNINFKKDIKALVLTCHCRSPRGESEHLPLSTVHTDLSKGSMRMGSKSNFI
Method: Transfected HEK293 cells overexpressing the mouse Y4 receptor were prepared and binding assays performed as previously described ([29]). Isolated cell membranes (protein concentration, 1 to 2 µg/mL) were incubated for 90 minutes in siliconized polypropylene tubes together with ^125I-PP [1 kBq (100 pM)] and a dose response of unlabeled competing peptides at 4°C in binding buffer [20 mM HEPES (pH 7.4), 1 mM MgCl2, 5 mM CaCl2, 0.1% bovine serum albumin, and protease inhibitors (0.2 mM phenylmethylsulfonyl fluoride, 0.1 mM Diprotin A, and 10 µM phosphoramidon ( all from Sigma-Aldrich)] in a final assay volume of 0.5 mL. PP was iodinated as previously described ([8]) using ^125I from GE Healthcare Life Sciences (Amersham, UK). Pelleted membranes were washed with 5 mL ice-cold assay buffer, and the membranes were centrifuged at 15,874g for 3 minutes at 4°C, as described, to separate bound and free label. Bound radioactivity was measured using a γ-counter (NE 1600; NE Technology Ltd, Reading, UK). Specific binding was calculated as the difference between the amount of ^125I-PP bound in the absence (total binding) and presence of 5 μM unlabeled competing peptide (nonsaturable binding). All curves were performed with points in triplicate. Half maximal inhibitory concentration values were calculated using Prism, version 5.01 (GraphPad Software Inc., San Diego, CA) using a three-parameter logistic equation for the nonlinear regression fit: Y = bottom + (top − bottom)/1 + 10^(LogEC50 − X), where EC50 is the half maximal effective concentration.

[2] = 150 nmol/kg SC, overnight-fasted C57/BL6 mice, n = 7

plasma level at 120 minutes relative to PP (in vivo; mouse): almost threefold
level at time molar at 0.5 h (in vivo; mouse, 100 nmol/kg, plasma peptide level at 30 minutes after injection): 26.9 nM
level at time molar at 2 h (in vivo; mouse, 100 nmol/kg, plasma peptide level at 120 minutes after injection): 5.81 ± 0.215 nM
Molecule: GAPLEPTYPGDNATPEQLARYAAALRRYINKLTRPRY-NH2 (C-terminus assumed) [PP-x]
cumulative food intake at 8 hours (0- to 8-hour interval), low dose ([1]; 25 nmol/kg SC, overnight-fasted C57BL/6 mice, n = 9, mean ± SEM): 1.98 ± 0.14 g
food intake at 8 hours, high dose ([1]; 150 nmol/kg SC, overnight-fasted C57BL/6 mice, n = 9, mean ± SEM): 1.04 ± 0.09 g

affinity to the Y4 receptor compared with PP (mouse Y4 receptor; DPPIV degradation product compared with PP, statement in discussion): no substantial reduction in affinity
Molecule: PP3-36: DPPIV degradation product of PP (LEPVYPGDNATPEQMAQYAADLRRYINMLTRPRY-NH2; ends and bridges not checked; UniProt P01298 32-65, looked up, fragment)
cumulative food intake 0 to 8 hours ([1]; 150 nmol/kg SC, overnight-fasted C57/BL6 mice, n = 7, mean ± SEM): 1.71 ± 0.29 g

level at time molar at 0.75 h (in vivo; male, C57BL/6, mouse, 150 nmol/kg, plasma level of PP-Ala0 at 45 minutes, alone): 4.92 ± 0.48 nM
level at time molar at 1.5 h (in vivo; male, C57BL/6, mouse, 150 nmol/kg, plasma level of PP-Ala0 at 90 minutes, alone): 1.81 ± 0.319 nM
decrease of plasma level (peptide cleared) between 45 and 90 minutes after injection (in vivo; mouse): 60%
IC50 (mouse Y4 receptor; membranes of HEK293 cells overexpressing mouse Y4 receptor, competition with 125I-PP (100 pM), 90 min, 4°C, mean ± SEM of three to five separate experiments, read-out: IC50 (half maximal inhibitory concentration), Y4 receptor binding affinity): 0.35 ± 0.05 nM
Molecule: CC[C@H](C)[C@H](NC(=O)[C@H](Cc1ccc(O)cc1)NC(=O)[C@H](CCCNC(=N)N)NC(=O)[C@H](CCCNC(=N)N)NC(=O)[C@H](CC(C)C)NC(=O)[C@H](CC(=O)O)NC(=O)[C@H](C)NC(=O)[C@H](C)NC(=O)[C@H](Cc1ccc(O)cc1)NC(=O)[C@H](CCC(N)=O)NC(=O)[C@H](C)NC(=O)[C@H](CCSC)NC(=O)[C@H](CCC(N)=O)NC(=O)[C@H](CCC(=O)O)NC(=O)[C@@H]1CCCN1C(=O)[C@@H](NC(=O)[C@H](C)NC(=O)[C@H](CC(N)=O)NC(=O)[C@H](CC(=O)O)NC(=O)CNC(=O)[C@@H]1CCCN1C(=O)[C@H](Cc1ccc(O)cc1)NC(=O)[C@@H](NC(=O)[C@@H]1CCCN1C(=O)[C@H](CCC(=O)O)NC(=O)[C@H](CC(C)C)NC(=O)[C@@H]1CCCN1C(=O)[C@H](C)NC(=O)[C@H](C)N)C(C)C)[C@@H](C)O)C(=O)N[C@@H](CC(N)=O)C(=O)N[C@@H](CCSC)C(=O)N[C@@H](CC(C)C)C(=O)N[C@H](C(=O)N[C@@H](CCCNC(=N)N)C(=O)N1CCC[C@H]1C(=O)N[C@@H](CCCNC(=N)N)C(=O)N[C@@H](Cc1ccc(O)cc1)C(N)=O)[C@@H](C)O [PP-Ala0]
inhibition of food intake over 24 hours vs saline [1, 2]: statistically significant inhibition of food intake

Further lines, the molecule ahead of its results:

Molecule: N[C@@H](CC(=O)N1CCn2c(nnc2C(F)(F)F)C1)Cc1cc(F)c(F)cc1F [sitagliptin]
effect on food intake, inhibitor alone ([1]; sitagliptin 6 mg/kg IP then saline SC, any interval up to 8 hours): did not cause a substantial reduction of food intake

Molecule: CC(C)C[C@H](NP(=O)(O)O[C@@H]1O[C@@H](C)[C@H](O)[C@@H](O)[C@H]1O)C(=O)N[C@@H](Cc1c[nH]c2ccccc12)C(=O)O [phosphoramidon]
effect on food intake, inhibitor alone ([1]; phosphoramidon 5 mg/kg IP then saline SC, any interval up to 48 hours): did not cause a substantial reduction of food intake

Molecule: CC[C@H](C)[C@H](NC(=O)[C@H](Cc1ccc(O)cc1)NC(=O)[C@H](CCCNC(=N)N)NC(=O)[C@H](CCCNC(=N)N)NC(=O)[C@H](CC(C)C)NC(=O)[C@H](CC(=O)O)NC(=O)[C@H](C)NC(=O)[C@H](C)NC(=O)[C@H](Cc1ccc(O)cc1)NC(=O)[C@H](CCC(N)=O)NC(=O)[C@H](C)NC(=O)[C@H](CCSC)NC(=O)[C@H](CCC(N)=O)NC(=O)[C@H](CCC(=O)O)NC(=O)[C@@H]1CCCN1C(=O)[C@@H](NC(=O)[C@H](C)NC(=O)[C@H](CC(N)=O)NC(=O)[C@H](CC(=O)O)NC(=O)CNC(=O)[C@@H]1CCCN1C(=O)[C@H](Cc1ccc(O)cc1)NC(=O)[C@@H](NC(=O)[C@@H]1CCCN1C(=O)[C@H](CCC(=O)O)NC(=O)[C@H](CC(C)C)NC(=O)[C@@H]1CCCN1)C(C)C)[C@@H](C)O)C(=O)N[C@@H](CC(N)=O)C(=O)N[C@@H](CCSC)C(=O)N[C@@H](CC(C)C)C(=O)N[C@H](C(=O)N[C@@H](CCCNC(=N)N)C(=O)N1CCC[C@H]1C(=O)N[C@@H](CCCNC(=N)N)C(=O)N[C@@H](Cc1ccc(O)cc1)C(N)=O)[C@@H](C)O [PP2-36]
inhibition of food intake over 24 hours vs saline [1, 2]: statistically significant inhibition of food intake
